{
  "source": "patent US20240109900A1",
  "about": "“AZABICYCLIC SHP2 INHIBITORS” (IRBM S.P.A., priority 2021, published 2024)",
  "key": {"[1]": {"molecular_target": "SHP-2 enzyme (Met1-Leu525) (Homo sapiens (Human), UniProt Q06124)", "sequence (Q06124 1-525)": "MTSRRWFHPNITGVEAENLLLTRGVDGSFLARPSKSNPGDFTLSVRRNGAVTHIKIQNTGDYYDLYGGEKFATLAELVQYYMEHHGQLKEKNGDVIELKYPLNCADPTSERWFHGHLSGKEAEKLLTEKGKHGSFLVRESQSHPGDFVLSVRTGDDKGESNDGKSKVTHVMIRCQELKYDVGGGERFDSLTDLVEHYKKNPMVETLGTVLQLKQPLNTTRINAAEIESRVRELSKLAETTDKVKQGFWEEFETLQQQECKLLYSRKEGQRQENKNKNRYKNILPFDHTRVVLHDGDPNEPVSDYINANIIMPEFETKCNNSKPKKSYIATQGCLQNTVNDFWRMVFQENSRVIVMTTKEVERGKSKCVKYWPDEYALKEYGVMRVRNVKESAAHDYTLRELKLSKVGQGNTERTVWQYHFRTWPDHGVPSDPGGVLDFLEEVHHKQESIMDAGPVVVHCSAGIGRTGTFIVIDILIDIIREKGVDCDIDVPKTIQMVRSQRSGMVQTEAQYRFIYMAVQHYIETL", "experiment": "SHP2 inhibition enzymatic assay", "assay_type": "biochemical", "conditions": "read-out: SHP2wt-IC50", "in_short": "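SHP-2 (Met1-Leu525), 0.5 nM, activated with 500 nM IRS1 bis-phosphopeptide, preincubated 30 min with compounds in HEPES pH 7.2 buffer with 5 mM DTT. 75 μM DiFMUP added for 30 min at room temperature, stopped with bpV; fluorescence read. IC50 from four-parameter logistic fit of % inhibition.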"}, "[2]": {"test_system": "ERK phosphorylation in KYSE-520 cells", "experiment": "Phospho-ERK cellular assay", "assay_type": "cell-based", "conditions": "KYSE-520 cells, 2 h at 37° C., phospho-ERK1/2 (Thr202/Tyr204) TR-FRET, read-out: PERK IC50", "in_short": "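TR-FRET read-out of ERK1/2 Thr202/Tyr204 phosphorylation was taken after overnight antibody incubation at room temperature. Before that, KYSE-520 cells were treated 2 h at 37 °C with compound dilutions and lysed 30 min. Percent inhibition relative to vehicle and cell-free wells was fitted four-parametrically to give IC50.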"}, "[3]": {"conditions": "0.5 nM SHP-2 activated by 500 nM IRS1 peptide, 75 μM DiFMUP substrate"}},
  "note": "pIC50: −log10 of the molar value. Where two headings read alike, the source gives them in different places.",
  "data": [
    {"smiles": "Cc1csc([C@@]2(CN)[C@@H]3CN(c4cnc5c(-c6ccc7nnsc7c6Cl)n[nH]c5n4)C[C@@H]32)n1", "note": "[Example 479]", "values": [
      {"measurement": "pIC50", "setting": "[1]; [3]", "result": "> 6.30"},
      {"measurement": "pIC50", "setting": "[2]", "result": "> 6.00"}
    ]},
    {"smiles": "Cc1c(-c2n[nH]c3nc(N4CC[C@@H]5[C@H](C4)[C@@]5(CN)c4ccccc4Cl)cnc23)ccc2nn(C)cc12", "note": "[Example 180, ((1S,6R,7R)-7-(2-chlorophenyl)-3-(3-(2,4-dimethyl-2H-indazol-5-yl)-1H-pyrazolo[3,4-b]pyrazin-6-yl)-3-azabicyclo[4.1.0]heptan-7-yl)methanamine]", "values": [
      {"measurement": "pIC50", "setting": "[1]; [3]", "result": "> 6.30"},
      {"measurement": "pIC50", "setting": "[2]; Homo sapiens, KYSE-520, 2 h", "result": "> 6.00"}
    ]},
    {"smiles": "Cc1c(-c2n[nH]c3nc(N4CC[C@@H]5[C@H](C4)[C@@]5(CN)c4ncc(C5CC5)cc4F)cnc23)ccc2nn(C)cc12", "note": "[Example 185, ((1S,6R,7S)-7-(5-cyclopropyl-3-fluoropyridin-2-yl)-3-(3-(2,4-dimethyl-2H-indazol-5-yl)-1H-pyrazolo[3,4-b]pyrazin-6-yl)-3-azabicyclo[4.1.0]heptan-7-yl)methanamine]", "values": [
      {"measurement": "pIC50", "setting": "[1]; [3]", "result": "> 6.30"},
      {"measurement": "pIC50", "setting": "[2]; Homo sapiens, KYSE-520, 2 h", "result": "> 6.00"}
    ]},
    {"smiles": "NC[C@]1(c2ccccc2F)[C@@H]2CCN(c3cnc(Sc4ccnc(N)c4Cl)c(N)n3)C[C@@H]21", "note": "[Example 384, 3-((2-amino-3-chloropyridin-4-yl)thio)-6-((1S,6R,7R)-7-(aminomethyl)-7-(2-fluorophenyl)-3-azabicyclo[4.1.0]heptan-3-yl)pyrazin-2-amine]", "values": [
      {"measurement": "pIC50", "setting": "[1]; [3]", "result": "> 6.30"},
      {"measurement": "pIC50", "setting": "[2]; Homo sapiens, KYSE-520, 2 h", "result": "> 6.00"}
    ]},
    {"smiles": "NC[C@]1(c2ccccc2F)[C@@H]2CCN(c3cnc4c(-c5ccnc6c5CCO6)n[nH]c4n3)C[C@@H]21", "note": "[Example 154, ((1S,6R,7R)-3-(3-(2,3-dihydrofuro[2,3-b]pyridin-4-yl)-1H-pyrazolo[3,4-b]pyrazin-6-yl)-7-(2-fluorophenyl)-3-azabicyclo[4.1.0]heptan-7-yl)methanamine]", "values": [
      {"measurement": "pIC50", "setting": "[1]; [3]", "result": "> 6.30"},
      {"measurement": "pIC50", "setting": "[2]; Homo sapiens, KYSE-520, 2 h", "result": "> 6.00"}
    ]},
    {"smiles": "Cc1nccc(-c2n[nH]c3nc(N4CC[C@@H]5[C@H](C4)[C@@]5(CN)c4ccccc4F)cnc23)c1F", "note": "[Example 195, ((1S,6R,7R)-3-(3-(3-fluoro-2-methylpyridin-4-yl)-1H-pyrazolo[3,4-b]pyrazin-6-yl)-7-(2-fluorophenyl)-3-azabicyclo[4.1.0]heptan-7-yl)methanamine]", "values": [
      {"measurement": "pIC50", "setting": "[1]; [3]", "result": "> 6.30"},
      {"measurement": "pIC50", "setting": "[2]; Homo sapiens, KYSE-520, 2 h", "result": "> 6.00"}
    ]},
    {"smiles": "NC[C@]1(c2ccccc2F)[C@@H]2CCN(c3cnc4c(-c5cccc6nccn56)n[nH]c4n3)C[C@@H]21", "note": "[Example 143, ((1S,6R,7R)-7-(2-fluorophenyl)-3-(3-(imidazo[1,2-a]pyridin-5-yl)-1H-pyrazolo[3,4-b]pyrazin-6-yl)-3-azabicyclo[4.1.0]heptan-7-yl)methanamine]", "values": [
      {"measurement": "pIC50", "setting": "[1]; [3]", "result": "> 6.30"},
      {"measurement": "pIC50", "setting": "[2]; Homo sapiens, KYSE-520, 2 h", "result": "> 6.00"}
    ]},
    {"smiles": "Cc1nc(N2CC[C@@H]3[C@H](C2)[C@@]3(CN)c2cc(F)ccc2F)cc(=O)n1-c1cccc(Cl)c1Cl", "note": "[Example 412, 6-((1S,6R,7R)-7-(aminomethyl)-7-(2,5-difluorophenyl)-3-azabicyclo[4.1.0]heptan-3-yl)-3-(2,3-dichlorophenyl)-2-methylpyrimidin-4(3H)-one]", "values": [
      {"measurement": "pIC50", "setting": "[1]; [3]", "result": "> 6.30"},
      {"measurement": "pIC50", "setting": "[2]", "result": "> 6.00"}
    ]},
    {"smiles": "Cc1c(-c2n[nH]c3nc(N4CC[C@@H]5[C@H](C4)[C@@]5(CN)c4c(F)cccc4F)cnc23)ccc2nn(C)cc12", "note": "[Example 106, ((1S,6R,7R)-7-(2,6-difluorophenyl)-3-(3-(2,4-dimethyl-2H-indazol-5-yl)-1H-pyrazolo[3,4-b]pyrazin-6-yl)-3-azabicyclo[4.1.0]heptan-7-yl)methanamine]", "values": [
      {"measurement": "pIC50", "setting": "[1]; [3]", "result": "> 6.30"},
      {"measurement": "pIC50", "setting": "[2]; Homo sapiens, KYSE-520, 2 h", "result": "> 6.00"}
    ]},
    {"smiles": "Cc1csc([C@@]2(CN)[C@@H]3CN(c4cnc5c(-c6ccc(F)c7ncccc67)n[nH]c5n4)C[C@@H]32)n1", "note": "[Example 213, ((1R,5S,6r)-3-(3-(8-fluoroquinolin-5-yl)-1H-pyrazolo[3,4-b]pyrazin-6-yl)-6-(4-methylthiazol-2-yl)-3-azabicyclo[3.1.0]hexan-6-yl)methanamine]", "values": [
      {"measurement": "pIC50", "setting": "[1]; [3]", "result": "> 6.30"},
      {"measurement": "pIC50", "setting": "[2]; Homo sapiens, KYSE-520, 2 h", "result": "> 6.00"}
    ]},
    {"smiles": "NCC1C2CCN(c3nc4nc(Sc5cccnc5C(F)(F)F)cnc4[nH]3)CC12", "note": "(centres unmarked) [Example 68, (3-(5-((2-(trifluoromethyl)pyridin-3-yl)thio)-1H-imidazo[4,5-b]pyrazin-2-yl)-3-azabicyclo[4.1.0]heptan-7-yl)methanamine]", "values": [
      {"measurement": "pIC50", "setting": "[1]", "result": "> 6.30"},
      {"measurement": "pIC50", "setting": "[2]; Homo sapiens", "result": "< 5.30"}
    ]},
    {"smiles": "Cc1csc([C@@]2(CN)[C@@H]3CN(c4cnc5nc(Sc6ccnc(N)c6Cl)ccc5n4)C[C@@H]32)n1", "note": "[Example 497, 4-((2-((1R,5S,6r)-6-(aminomethyl)-6-(4-methylthiazol-2-yl)-3-azabicyclo[3.1.0]hexan-3-yl)pyrido[2,3-b]pyrazin-6-yl)thio)-3-chloropyridin-2-amine]", "values": [
      {"measurement": "pIC50", "setting": "[1]; [3]", "result": "> 6.30"},
      {"measurement": "pIC50", "setting": "[2]; Homo sapiens, KYSE-520, 2 h", "result": "> 6.00"}
    ]},
    {"smiles": "Cn1c(=O)oc2ccc(-c3n[nH]c4nc(N5CC[C@@H]6[C@H](C5)[C@@]6(CN)c5ccccc5F)cnc34)cc21", "note": "[Example 341, 5-(6-((1S,6R,7R)-7-(aminomethyl)-7-(2-fluorophenyl)-3-azabicyclo[4.1.0]heptan-3-yl)-1H-pyrazolo[3,4-b]pyrazin-3-yl)-3-methylbenzo[d]oxazol-2(3H)-one]", "values": [
      {"measurement": "pIC50", "setting": "[1]; [3]", "result": "> 6.30"},
      {"measurement": "pIC50", "setting": "[2]; Homo sapiens, KYSE-520, 2 h", "result": "> 6.00"}
    ]},
    {"smiles": "COc1ccc(-c2n[nH]c3nc(N4CC[C@@H]5[C@H](C4)[C@@]5(CN)c4ccccc4F)cnc23)c2ccc(C)nc12", "note": "[Example 201, ((1S,6R,7R)-7-(2-fluorophenyl)-3-(3-(8-methoxy-2-methylquinolin-5-yl)-1H-pyrazolo[3,4-b]pyrazin-6-yl)-3-azabicyclo[4.1.0]heptan-7-yl)methanamine]", "values": [
      {"measurement": "pIC50", "setting": "[1]; [3]", "result": "> 6.30"},
      {"measurement": "pIC50", "setting": "[2]; Homo sapiens, KYSE-520, 2 h", "result": "> 6.00"}
    ]},
    {"smiles": "NC[C@]1(c2ccccc2F)[C@@H]2CCN(c3cnc4c(-c5ccc(S(N)(=O)=O)cc5Cl)n[nH]c4n3)C[C@@H]21", "note": "[Example 346, 4-(6-((1S,6R,7R)-7-(aminomethyl)-7-(2-fluorophenyl)-3-azabicyclo[4.1.0]heptan-3-yl)-1H-pyrazolo[3,4-b]pyrazin-3-yl)-3-chlorobenzenesulfonamide]", "values": [
      {"measurement": "pIC50", "setting": "[1]; [3]", "result": "> 6.30"},
      {"measurement": "pIC50", "setting": "[2]; Homo sapiens, KYSE-520, 2 h", "result": "< 5.30"}
    ]},
    {"smiles": "NC[C@]1(c2ccccc2F)[C@@H]2CCN(c3cnc4c(-c5ccnc6occc56)n[nH]c4n3)C[C@@H]21", "note": "[Example 186, ((1S,6R,7R)-7-(2-fluorophenyl)-3-(3-(furo[2,3-b]pyridin-4-yl)-1H-pyrazolo[3,4-b]pyrazin-6-yl)-3-azabicyclo[4.1.0]heptan-7-yl)methanamine]", "values": [
      {"measurement": "pIC50", "setting": "[1]; [3]", "result": "> 6.30"},
      {"measurement": "pIC50", "setting": "[2]; Homo sapiens, KYSE-520, 2 h", "result": "> 6.00"}
    ]}
  ]
}
